# Experimental data reported in patent publication US7320995B2, “Benzimidazoles and benzothiazoles as inhibitors of map kinase” (Eli Lilly and Company, priority 2002, dated 2008).
# How the values were obtained:
# [1] = system: TNF-α production in mouse peritoneal macrophages; assay: Inhibition of TNF-α in vitro, mouse peritoneal macrophages, Luminex; assay type: cell-based; conditions: Peritoneal macrophage; LPS and interferon-γ stimulated mouse peritoneal macrophages, 18 hours; read-out: IC50, suppression of TNF-α in vitro
# Method: At day 4 or 5 post-injection the mice are sacrificed and then injected i.p. with 4 mL Dulbecco's phosphate-buffered saline (BioWhittaker) and the peritoneal macrophages are withdrawn by syringe. Mouse peritoneal macrophages are counted with a hemocytometer and adjusted to 2.5×10^6 cells/ml complete media (RPMI-1640 medium containing 10% fetal bovine serum). Cells are plated in 96-well flat-bottom plates at 5×10^5 cells per 200 μl per well and allowed to settle and adhere to the bottom of the well for at least 3 hours. […] (20 μL/well). The cells are then treated with a mixture of 50 ng/L lipopolysaccharide (LPS) and 10 U/mL interferon-γ for 18 hours at 37° C. (20 μL/well). The conditioned media is harvested and assayed for TNF-α production using the Luminex procedure. […] The premixed anti-cytokine conjugated beads are vortexed (25×) vigorously for 30 seconds. The anti-cytokine conjugated beads are diluted to a 1× concentration using 1× Bio-Plex Assay Buffer. For every plate, 240 μL of the pre-mixed beads is added to 5760 μL of Bio-Plex Assay Buffer. […] The blocking buffer is filtered through using a Millipore filtration system and then toweled dry. Two washes are performed on the filter plate with 100 μl/well of Bio-Plex Assay Buffer and toweled dry. The 1× anti-cytokine conjugated beads are vortexed for 15 seconds and added 50 μL to each well. This is filtered through and toweled dry. Two washes are performed on plates with 100 μl/well of Bio-Plex Wash Buffer. Again, it is filtered through and toweled dry. 50 μL of sample or standard is added to each sample well. This is incubated for 60 seconds at room temperature on a shaker protected from light at setting 6 and then for 30 minutes at setting 3 and then placed in the refrigerator overnight. […] Standards and samples are read on a Luminex machine. These intensity readings are then converted to picogram/milliliter units based on a 12-point standard curve created in duplicate using a four-parameter logistic regression method (Bio-Plex Manager, Versions 2.0 and 3.0, Bio-Rad), and the IC50 calculated.
# [2] = system: B16F10 melanoma lung metastases; assay: Inhibition of B16F10 melanoma lung metastases; assay type: in vivo, C57B16 mice; conditions: day -1 to 16
# Method: The B16F10 melanoma cell line is obtained from the American Type Culture Collection, Rockville, Md. The cells are cultured in RPMI-1640 medium supplemented with 10% fetal calf serum. The cells grown in vitro are harvested during their exponential growth phase by gentle trypsinization, washed twice in medium, and resuspended in serum-free RPMI-1640 medium. The number of monodisperse viable cells is determined using a hemocytometer and adjusted to 1×10^6 cells/mL. Tumor cells are injected intravenously into the tail vein of normal C57B16 mice with an inoculum volume of 0.2 ml containing 200,000 cells. Mice are treated with test compound or vehicle control starting 1 day before i.v. tumor inoculation. Example 77 (free base) is prepared as a suspension formulation in 1% NaCMC/0.25% polysorbate 80 and probe sonicated in an injection volume of 1% body weight (e.g., the 30 mg/kg dose level is prepared at 3 mg/ml and 0.2 cc was administered per 20 gram mouse). Mice are treated orally tid. with the compound at 30, 10, and 3 mg/kg (90, 30, and 9 mg/kg/day) from days −1 through 16 after tumor cell inoculation. Control mice receive the vehicle alone in an identical manner. On day 16, the mice are sacrificed, and the lungs are harvested and fixed in 3% paraformaldehyde. Lung lesions are quantitated by manual counting under a dissecting microscope.
# The test compound was tested in the B16F10 melanoma lung metastasis model orally at 3, 10, and 30 mg/kg, tid from one day before to 16 days after i.v. tumor inoculation (total dose 9, 30 and 90 mg/kg/day). The lungs were harvested on day 16 and lung lesions were quantitated.
# [3] = system: TNF-α; assay: Effect on intra-articular LPS induced TNF-α (synovial lavage fluid, ELISA); assay type: in vivo, female Lewis rats; conditions: orally, one hour before intra-articular LPS, lavage after two hours
# Method: Intra-articular injection of LPS into rat […] induces the synthesis of TNF-α, which can be measured in synovial lavage fluid. High levels of TNF-α are detectable within 2 hours. Since the joint is the site where arthritis develops, this model can rapidly determine whether an orally administered compound has an effect on an inflammatory response in the synovium.
# Six female Lewis rats (150-200 g) are place in each treatment group. The animals are given vehicle (1% NaCarboxymethylcellulose-0.25% Tween 80) or Example 77 (free base) (1 mg/kg, 3 mg/kg, 10 mg/kg, and 30 mg/kg) orally. One hour later, 10 μl LPS (10 μg) is administered intra-articulately into the right ankle of each rat, while the left ankle receives 10 μL of saline. After two hours, each […] is laved with 100 μL of saline. The lavage is collected and stored at −80° C. • Group#1: Vehicle (1% NaCMC-0.25% Tween 80, 1 mL, PO) • Group#2: Example 77 (free base) (1 mg/kg, 1 mLl, PO) • Group#3: Example 77 (free base) (3 mg/kg, 1 mL, PO) • Group#4: Example 77 (free base) (10 mg/kg, 1 mL, PO) • Group#5: Example 77 (free base) (30 mg/kg, 1 mL, PO)
# TNF-α was measured with a commercially available ELISA kit (R&D, RTA00). […] The TMED50=10 mg/kg for Example 77 in this assay.
# [4] = system: MAPKAP-K2 phosphorylation in P815 tumors; assay: In vivo target inhibition study in P815 mastocytoma model; design: species or system DBA/2 mice; conditions: single oral dose 30 mg/kg
# Method: In vivo target inhibition is determined by measuring the effect of inhibitor treatment on the phosphorylation of MAPKAP-K2 expressed in P815 tumor tissues. Tumors in DBA/2 mice received P815 cells subcutaneous implantation are allowed to grow to a size of 300-500 mg without treatment. Tumor bearing mice are then given oral administration of Example 77 (free base) or vehicle. To investigate time course related target inhibition by Example 77 (free base), tumors are harvested from CO2 sacrificed animals at the indicated times (3 hours, 6 hours, 12 hours, and 18 hours) after compound is dosed at 30 mg/kg. Dose-dependent target inhibition by Example 77 (free base) is investigated by harvesting tumors at 3 hours after orally given different doses of Example 77 (free base) or vehicle. Harvested tumors are immediately snap frozen onto dry ice, pulverized, homogenized and lysed in cooled lysis buffer containing proteinase and phosphatase inhibitors. After centrifugation to remove cell debris, supernatants containing 100 microgram total proteins are resuspended in 2×Tris-Glycin loading buffer and subjected to sodium dodecyl sulfate-polyacrylamide gel electrophoresis (10% Tris-Glycine) under reducing conditions. […] Expression level of phospho-p38 MAP kinase and total p-38 MAP kinase is also monitored by similar western blotting procedure.
# [5] = system: MAPKAPK-2 phosphorylation (p38 MAPK) in B16F10 tumors; assay: B16F10 target (phosphorylated MAPKAPK-2) studies, immuno-blot of tumors; assay type: in vivo, C57B16 mice
# [6] = Rat collagen induced arthritis efficacy model; assay type: in vivo, female Lewis rats
# Method: Female Lewis rats ((≅190 gm, Charles River Labs) are immunized with Bovine type II collagen (2 mg/ml) emulsified with an equal volume of adjuvant (aluminum hydroxide). […]. The rats are immunized with approximately […] of the emulsion intradermally on the back near the base of the tail. All animals are re-immunized 7 days later according to the same protocol. The rats begin to develop arthritis (characterized by swelling and redness of one or both ankles) from 12 to 14 days after the first immunization. The rats are equally distributed into five treatment groups at the first signs of arthritis and treatment is initiated with each rat dosed bid for 14 days.
# • Group 1 Vehicle (1% NaCarboxymethylcellulose+0.25% Tween 80) 1 mL, PO, Bid×14 days • Group 2 Example 77 (free base), 5 mg/kg, 1 mL, PO, Bid×14 • Group 3 Example 77 (free base), 15 mg/kg, 1 mL, PO, Bid×14 • Group 4 Example 77 (free base), 30 mg/kg, 1 mL, PO, Bid×14 • Group 5 Prednisolone 10 mg/kg, 1 mL, PO, qd×14
# Ankle diameter is measured with calipers 5 days a week and recorded. Data is expressed as the area under the curve (AUC) generated from the composite inflammation scores and statistical analysis performed.
# At the termination of the study, animals were sacrificed and ankles processed for histological evaluation. […]
# [7] = system: P815 tumors; assay: Inhibition of P815 tumor growth in vivo; design: species or system DBA/2 mice
# Method: Female(6-8 weeks old) DBA/2 mice (Taconic) are implanted subcutaneously into the hind flank region on day 0 with P815 cells (0.5×10^6 cells in 200 ul of RPMI 1640). P815 tumor cells are purchased from ATCC and are cultured in RPMI 1640 medium, supplemented with glutamine and 10% bovine serum at 37° C. in 5% CO2 cell culture incubator. Tumor-bearing animals are treated with oral administration of Example 77 (free base), at different doses or vehicle with frequency of three times a day started on the day of implantation. Tumor growth is monitored every 2 days by measuring perpendicular diameters. Tumor volume expressed in milligram (mg) is determined as the product of the largest diameter (a) and its perpendicular (b) according to the formula [tumor volume=a×b^2×0.536].
# [8] = system: angiogenesis; conditions: J. R. Jackson, et al., 1998; cited from earlier work
smiles,measurement,setting,value
"CC(C)S(=O)(=O)n1c(N)nc2ccc(-c3nc(-c4cccs4)[nH]c3-c3ccccc3)cc21 [Example 1, 1-isopropylsulfonyl-2-amino-6-(2-(thien-2-yl)-5-(phenyl)-imidazol-4-yl)-benzimidazole methanesulfonate]",IC50,[1],< 100 nM
"CC(C)S(=O)(=O)n1c(N)nc2ccc(-c3nc(-c4ccncc4)[nH]c3-c3ccccc3)cc21 [Example 16, 1-isopropylsulfonyl-2-amino-6-(2-(pyridin-4-yl)-5-(phenyl)-imidazol-4-yl)-benzimidazole]",IC50,[1],< 100 nM
"CC(C)S(=O)(=O)n1c(N)nc2ccc(-c3nc(-c4nccs4)[nH]c3-c3ccccc3)cc21 [Example 17, 1-isopropylsulfonyl-2-amino-6-(2-(thiazol-2-yl)-5-(phenyl)-imidazol-4-yl)-benzimidazole]",IC50,[1],< 100 nM
"CC(C)S(=O)(=O)n1c(N)nc2ccc(-c3nc(-c4c(F)cccc4F)[nH]c3-c3ccccc3)cc21 [Example 77, 1-isopropylsulfonyl-2-amino-6-(2-(2,6-difluorophenyl)-5-(phenyl)-imidazol-4-yl)-benzimidazole]",inhibition of lung metastasis formation,[2]; 3 mg/kg orally tid,54%
same,inhibition of lung metastasis formation,[2]; 10 mg/kg orally tid,73%
same,inhibition of lung metastasis formation,[2]; 30 mg/kg orally tid,95%
same,"TMED50, inhibition of TNF-α synthesis in synovial lavage fluid",[3],10 mg/kg
same,earliest time of the inhibitory effect on MAPKAP-K2 phosphorylation,[4],3 h
same,time to which the inhibitory effect on MAPKAP-K2 phosphorylation extended,[4],12 h
same,time for which p38 MAPK activity was inhibited,"[5]; 30 mg/kg, time course study",up to 9 hours
same,"ANOVA TMED50, inhibition of MAPKAPK-2 phosphorylation",[5]; 2.5 hours after p.o. dosing,3 mg/kg
same,lowest dose with appreciable inhibition of MAPKAPK-2 phosphorylation,[5]; 2.5 hours after p.o. dosing,0.3 mg/kg
same,reduction of the phosphorylation level of MAPKAPK-2 in the tumors,[5]; doses >30 mg/kg,> 80%
same,maximum reduction in ankle diameter,[6]; 30 mg/kg PO bid x 14 days,46%
same,inhibition of tumor volume,[7]; 3 mg/kg oral tid,55%
same,inhibition of tumor volume,[7]; 30 mg/kg oral tid,67%
"C[C@]12C=CC(=O)C=C1CC[C@@H]1[C@@H]2[C@@H](O)C[C@@]2(C)[C@H]1CC[C@]2(O)C(=O)CO [Prednisolone, reference compound]",inflammation (ankle diameter),[6]; 10 mg/kg PO qd x 14,reduced the inflammation to pre-arthritic levels
Nc1nccc(-c2c(-c3ccc(F)cc3)ncn2C2CCNCC2)n1 [SB22025],inhibition of angiogenesis,[8],has been shown to inhibit angiogenesis
